Patent US10047113B2, “Feruloyl-CoA:monolignol transferase” (Wisconsin Alumni Research Foundation (WARF), priority 2010, dated 2018)

Key:
[1] = system: feruloyl-CoA:monolignol transferase (FMT); assay: Feruloyl-CoA:monolignol transferase (FMT) enzymatic assay, UPLC detection of product; assay type: biochemical, Angelica sinensis; conditions: purified recombinant enzyme; for product formation from acyl-CoA substrate: coniferyl alcohol as acceptor, FIGS. 2, 6, 7; for FMT enzyme activity with monolignol as substrate: feruloyl-CoA as acyl donor, FIGS. 2, 4, 5
Method: The feruloyl-CoA, p-coumaroyl-CoA, and caffeoyl-CoA substrates used in the FMT assay were enzymatically synthesized using the tobacco 4-coumarate-CoA-ligase (4CL) with a c-terminal HIS tag in pCRT7/CT TOPO, provided by Eran Pichersky. Following a method modified from Beuerle and Pichersky (Anal. Biochem. 302(2): 305-12 (2001)) 3.3 mg of ferulic acid, coumaric acid or caffeic acid, 2 mg coenzyme A, and 6.9 mg ATP were added to 50 mM Tris-hydrochloride pH 8 and 2.5 mM magnesium chloride in a final volume of 10 ml. The reaction was started by adding 0.25 mg 4CL, protein purified as described by the method of Beurerle and Pichershy. After a five-hour incubation at room temperature, additional 6.9 mg ATP, 2 mg coenzyme A, and 0.25 mg purified 4CL were added and the reaction was incubated overnight. The CoA esters were purified on an SPE cartridge as described in Beuerle and Pichersky (2001).
(§1) The FMT activity assay contained 100 mM MOPS pH 6.8, 1 mM dithiothreitol (DTT), 1 mM feruloyl-CoA, 1 mM coniferyl alcohol, 3.9 μg of purified FMT protein and deionized water to a volume of 50 μL. After a 30-minute incubation, 1 μL of 10 M hydrochloric acid was added to stop the reaction. Because the product synthesized in the reaction, coniferyl ferulate (CAFA), is insoluble, 50 μL of methanol was added to solubilize the CAFA. Prior to UPLC, protein and insoluble material were removed by filtering through an Amicon Ultracel 10K membrane filter (Millipore). The flow-through was analyzed using an Acquity Ultra Performance LC with an Acquity UPLC BEH C18 1.7 μm 2.1×100 mm column and the Acquity Console and Empower 2 Software, all from Waters Corporation. The solvents used in this method were solvent A, 0.1% trifluoroacetic acid, and solvent B, 100% acetonitrile. Samples were analyzed using the following gradient conditions, 13% B, for 5 minutes, 1 minute linear gradient to 42% B, held for 4 minutes, 1 minute linear gradient to 100% B, held for 1 minutes and 3 minutes at 13% B with a flow rate of 0.3 ml/minute. This method was then used to analyze a 10 μL injection of each assay reaction; standards for each of the substrates along with chemically synthesized CAFA were used to determine retention times for each compound.
Purified recombinant enzyme was assayed for FMT activity using a reaction mixture containing 2 mM coniferyl alcohol, […], 100 mM HEPES pH 7.4 and 1 mM DTT. The second most abundant BAHD acyltransferase gene when incubated with Coniferyl alcohol and feruloyl-CoA produced a compound with the retention time of authentic coniferyl ferulate (CAFA) (FIG. 2). […] The addition of methanol to 50% after stopping the enzyme with acid was required to analyze the product by UPLC. The insolubility of the product made partial purification easy as the product was separated from the substrates by centrifugation.
This partial purified product was analyzed by NMR. The identity of the product as CAFA was confirmed by ^1H-NMR (FIG. 3). The enzyme was tested with p-coumaryl alcohol (FIG. 4) and sinapyl alcohol (FIG. 5) in addition to coniferyl alcohol (FIG. 2). The enzyme is active with all three monolignols, i.e., p-coumaryl alcohol, coniferyl alcohol and sinapyl alcohol. The enzyme was tested with p-coumaroyl-CoA (FIG. 6) and caffeoyl-CoA (FIG. 7) as well as feruloyl-CoA (FIG. 2).

[2] = Solubility of the FMT reaction product; assay type: physicochemical
Method: as §1, with “compound. […]” for “compound.”

SMILES: CC(C)(COP(=O)(O)OP(=O)(O)OC[C@H]1O[C@@H](n2cnc3c(N)ncnc32)[C@H](O)[C@@H]1OP(=O)(O)O)[C@@H](O)C(=O)NCCC(=O)NCCSC(=O)/C=C/c1ccc(O)c(O)c1 [caffeoyl-CoA]
- product formation from acyl-CoA substrate [1]: very little product is produced

SMILES: CC(C)(COP(=O)(O)OP(=O)(O)OC[C@H]1O[C@@H](n2cnc3c(N)ncnc32)[C@H](O)[C@@H]1OP(=O)(O)O)[C@@H](O)C(=O)NCCC(=O)NCCSC(=O)/C=C/c1ccc(O)cc1 [p-coumaroyl-CoA]
- product formation from acyl-CoA substrate [1]: very little product is produced

SMILES: COc1cc(/C=C/CO)ccc1O [coniferyl alcohol]
- FMT enzyme activity with monolignol as substrate [1]: active

SMILES: COc1cc(/C=C/CO)cc(OC)c1O [sinapyl alcohol]
- FMT enzyme activity with monolignol as substrate [1]: active

SMILES: COc1cc(/C=C/COC(=O)/C=C/c2ccc(O)c(OC)c2)ccc1O [coniferyl ferulate]
- solubility in assay reaction mixture ([2]; FMT activity assay, 100 mM MOPS pH 6.8, methanol added to solubilize): insoluble
- solubility in water ([2]; product of enzyme reaction, methanol to 50% needed for UPLC): mostly insoluble in water

SMILES: OC/C=C/c1ccc(O)cc1 [p-coumaryl alcohol]
- FMT enzyme activity with monolignol as substrate [1]: active

SMILES: COc1cc(/C=C/C(=O)SCCNC(=O)CCNC(=O)[C@H](O)C(C)(C)COP(=O)(O)OP(=O)(O)OC[C@H]2O[C@@H](n3cnc4c(N)ncnc43)[C@H](O)[C@@H]2OP(=O)(O)O)ccc1O [feruloyl-CoA]
- product formation from acyl-CoA substrate [1]: substantial product is formed
